13 molecules from patent US4786644A, “1-aryl-3-quinolinecarboxamide” (Hoechst-Roussel Pharmaceuticals Inc., priority 1987, dated 1988) can be followed below.

For test [1], the system named is carrageenan-induced rat paw edema. As to the kind of experiment: carrageenan-induced rat paw edema antiinflammatory assay. To be noted: screening dose of 100 mg/kg, p.o. It is filed as in vivo. On the technique in general: Carrageenan injected into the paw causes an acute inflammation.
For test [2], the system named is phenyl-p-quinone writhing. Nature of the test: phenyl-p-quinone writhing assay in mice (analgesic). In kind it is in vivo, mouse (male, Charles River, CD-1). To be noted: for Analgesic Activity, % Inhibition of Writhing: mouse, screening dose of 20 mg/kg, s.c. The protocol: The procedure employed to determine analgetic utility is a modification of the phenyl-p-quinone writhing assay in mice, a standard assay for analgetic activity [Proc. Soc. Exptl. […] The solution is administered to the subject mice intraperitoneally at a dose of 10 ml per kg of body weight. A characteristic "writhe", an inward rotation of one or more feet with twisting and turning of the trunk, drawing in of the abdominal wall, lordosis and arching of the back, is produced.
A total of 28 male mice (Charles River, CD-1), weighing 18 to 30 grams, are employed for a time response. The subject animals receive food and water ad libitum. Test compounds are dissolved in distilled water, or suspended in distilled water containing one drop of a suitable surfactant, such as Tween-80.
Four groups of five animals (20 animals) are given the test compound subcutaneously (s.c.) or orally (p.o.) at 15, 30, 45 and 60 minutes prior to administration of the phenyl-p-quinone. A control group (2 animals per group) receive an equal volume of the vehicle. After the administration of the phenyl-p-quinone, the mice are placed separately in one liter beakers, and after five minutes, are observed for ten minutes. The number of writhes for each animal is recorded. The following formula is used to compute the percent inhibition: [formula]
A dose range determination is run in the same manner as the time response except 10 animals per group are tested at the peak time of test drug activity. Fifty animals, 4 test drug groups, and a vehicle control are employed. Animals are dosed and tested in a randomized manner. The time period with the greatest percent of inhibition is considered the peak time.

Test [3] relates to adjuvant-induced polyarthritis syndrome. Nature of the test: adjuvant-induced polyarthritis syndrome in rats. In kind it is in vivo, rat (male Charles River-Wistar Lewis). To be noted: rat, p.o., daily for 21 days. The protocol:
This activity was measured by a procedure similar to that described by C. M. Pearson and F. D. Wood, Arthritis and Rheumatism, 2, 440 (1959).
Groups of 10 male Charles River-Wistar Lewis rats weighing 150 to 175 g were individually housed and maintained on a regular rat chow diet. Water was given ad libitum. The adjuvant was prepared by suspending 75 mg of Mycobacterium butyricum (Difco Laboratories, Detroit, Mich.) in 10 ml of white paraffin oil with continuous stirring for 2 hours at room temperature prior to administration. Test compounds are prepared by suspending the drug in water, adding one drop of Tween 80 per 10 ml of suspension, and homogenizing. The adjuvant suspension (0.1 ml) was injected into the footpad of the left hind paw of the rat. Test compound suspensions were adminstered orally (10 ml/kg) the day before adjuvant suspension injection and the administration was continued daily for 21 days. One group of ten rats was used for the test drug. Standard, adjuvant-injected control and non-injected control groups were run along with the test drug. Control animals received vehicle (10 ml/kg). Injected and non-injected paw volumes were determined on the day the adjuvant suspension was given, and on subsequent days thereafter (usually days 5, 10, 18, and 21) by the method of C. A. Winter, et al., Proc. Soc. Exp. Biol. Med., 111, 544 (1962).
The percent inhibition of paw volume (injected and non-injected paw) were calculated by the following formula: [formula] The results of the adjuvant-induced polyarthritis syndrome test procedure for several of the compounds of this invention are provided in Table 2.

For `CC(=O)Oc1ccccc1C(=O)O` [Aspirin, reference compound], the “Inhibition of Carrageenan-Induced Rat Paw Edema, Percent Inhibition” value in test [1] is listed as -29%. Besides, in test [2] (Mus musculus, sc, read-out: ED50 (dose effecting 50% inhibition of writhing)), the ED50 (commonly the dose at which the effect has come halfway, by size or by number of responders) came to 32.8 mg/kg. Besides, in test [3] (screening dose of 50 mg/kg), the “percent inhibition of paw volume, Adjuvant-Treated Paw” value was -22% and the “percent inhibition of paw volume, Non-Injected Paw” value was -33%.

Take `O=C(Nc1ccccn1)c1nc(-c2ccccc2)c2ccccc2c1O` [Example 1, 4-Hydroxy-1-phenyl-N-(2-pyridyl)-3-isoquinolinecarboxamide]: in test [3] (screening dose of 45 mg/kg), the “percent inhibition of paw volume, Adjuvant-Treated Paw” value is on record as “+1%” and the “percent inhibition of paw volume, Non-Injected Paw” value is reported as -17%.

`O=C(Nc1cccc(Cl)c1)c1nc(-c2ccccc2)c2ccccc2c1O` [Example 3, N-(3-Chlorophenyl)-4-hydroxy-1-phenyl-3-isoquinolinecarboxamide]: in test [2], the “Analgesic Activity, % Inhibition of Writhing” value is reported as 51%.

Consider `O=C(Nc1ccc(Cl)cn1)c1nc(-c2ccccc2)c2ccccc2c1O` [Example 4, N-(5-Chloro-2-pyridyl)-4-hydroxy-1-phenyl-3-isoquinolinecarboxamide], for which the “Analgesic Activity, % Inhibition of Writhing” value in test [2] came to 57%. Also, in test [3] (screening dose of 50 mg/kg), the “percent inhibition of paw volume, Adjuvant-Treated Paw” value is reported as -22% and the “percent inhibition of paw volume, Non-Injected Paw” value is recorded as -38%.

For `O=C(Nc1ccccc1)C1=C(O)c2ccccc2N(c2ccccc2)C1` [Example 8, 1,2-Dihydro-4-hydroxy-1-phenyl-N-phenyl-3-quinolinecarboxamide], the “Inhibition of Carrageenan-Induced Rat Paw Edema, Percent Inhibition” value in test [1] is listed as -28%. Also, in test [3] (screening dose of 50 mg/kg), the “percent inhibition of paw volume, Adjuvant-Treated Paw” value is reported as -5% and the “percent inhibition of paw volume, Non-Injected Paw” value was -26%.

For the molecule `O=C(Nc1cnccn1)C1=C(O)c2ccccc2N(c2ccccc2)C1` [Example 9, 1,2-Dihydro-4-hydroxy-1-phenyl-N-(2-pyrazinyl)-3-quinolinecarboxamide], in test [1], the “Inhibition of Carrageenan-Induced Rat Paw Edema, Percent Inhibition” value was -24%. Further, the “Analgesic Activity, % Inhibition of Writhing” value in test [2] was determined as 31%.

Turning to `Cc1csc(NC(=O)C2=C(O)c3ccccc3N(c3ccccc3)C2)n1` [Example 10, 1,2-Dihydro-4-hydroxy-N-(4-methyl-2-thiazolyl)-1-phenyl-3-quinolinecarboxamide], the “Analgesic Activity, % Inhibition of Writhing” value in test [2] is recorded as 36%.

Regarding `O=C(Nc1ccc(Br)cn1)C1=C(O)c2ccccc2N(c2ccccc2)C1` [Example 12, N-(5-Bromo-2-pyridyl)-1,2-dihydro-4-hydroxy-1-phenyl-3-quinolinecarboxamide], in test [2], the “Analgesic Activity, % Inhibition of Writhing” value was 39%. Moreover, in test [3] (screening dose of 50 mg/kg), the “percent inhibition of paw volume, Adjuvant-Treated Paw” value is -2% and the “percent inhibition of paw volume, Non-Injected Paw” value is given as -22%.

Regarding `O=C(Nc1ccccn1)c1cn(-c2ccccc2)c2ccccc2c1=O` [Example 13, 1,4-Dihydro-4-oxo-1-phenyl-N-(2-pyridyl)-3-quinolinecarboxamide], in test [1], the “Inhibition of Carrageenan-Induced Rat Paw Edema, Percent Inhibition” value is given as -25%.

For the molecule `O=C(Nc1cnccn1)c1cn(-c2ccccc2)c2ccccc2c1=O` [Example 17, 1,4-Dihydro-4-oxo-1-phenyl-N-(2-pyrazinyl)-3-quinolinecarboxamide], the “Inhibition of Carrageenan-Induced Rat Paw Edema, Percent Inhibition” value in test [1] is -23%. In test [3] (screening dose of 50 mg/kg), the “percent inhibition of paw volume, Adjuvant-Treated Paw” value was -7% and the “percent inhibition of paw volume, Non-Injected Paw” value was -23%.

In the case of `Cc1csc(NC(=O)c2cn(-c3ccccc3)c3ccccc3c2=O)n1` [Example 18, 1,4-Dihydro-N-(4-methyl-2-thiazolyl)-4-oxo-1-phenyl-3-quinolinecarboxamide], the “Inhibition of Carrageenan-Induced Rat Paw Edema, Percent Inhibition” value in test [1] is reported as -28%. Further, in test [3] (screening dose of 50 mg/kg), the “percent inhibition of paw volume, Adjuvant-Treated Paw” value was -12% and the “percent inhibition of paw volume, Non-Injected Paw” value is on record as -26%.

Take `Cc1cccc(NC(=O)c2cn(-c3ccccc3)c3ccccc3c2=O)n1` [Example 19, 1,4-Dihydro-N-(6-methyl-2-pyridyl)-4-oxo-1-phenyl-3-quinolinecarboxamide]: the “Analgesic Activity, % Inhibition of Writhing” value in test [2] worked out at 35%.

In the case of `Cc1ccc(NC(=O)c2cn(-c3ccccc3)c3ccccc3c2=O)nc1` [Example 20, 1,4-Dihydro-N-(5-methyl-2-pyridyl)-4-oxo-1-phenyl-3-quinolinecarboxamide], in test [2], the “Analgesic Activity, % Inhibition of Writhing” value was found to be 30%.
